According to patent US5462933A, “Modified bile acid conjugates, and their use as pharmaceuticals” (Hoechst Aktiengesellschaft, priority 1989, dated 1995):
Counter-ions that a name gives are not always drawn. Like-named read-outs stand apart in the source and are kept apart here.

Molecular target: T1, Na+-dependent bile acid transport system (Oryctolagus cuniculus, UniProt Q28727)
T1 construct: brush-border membrane vesicles from the ileum of rabbits; from tissue; host or cells: terminal ileum of male New Zealand rabbits, brush-border membrane vesicles
T1 sequence (Q28727 1-347): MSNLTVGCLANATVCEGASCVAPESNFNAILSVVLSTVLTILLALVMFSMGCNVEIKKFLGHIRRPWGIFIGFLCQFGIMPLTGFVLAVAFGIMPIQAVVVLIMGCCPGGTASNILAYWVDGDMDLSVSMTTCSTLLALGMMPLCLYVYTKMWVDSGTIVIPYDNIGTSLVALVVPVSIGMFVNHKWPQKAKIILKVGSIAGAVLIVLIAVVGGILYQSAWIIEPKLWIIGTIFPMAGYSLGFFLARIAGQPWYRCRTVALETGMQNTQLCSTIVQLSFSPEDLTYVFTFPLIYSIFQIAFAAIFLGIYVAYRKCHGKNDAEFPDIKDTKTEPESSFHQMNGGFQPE
Assay: Inhibition of Na+-dependent [3H]taurocholate absorption into brush-border membrane vesicles of the ileum
Format: biochemical, rabbit
Method: The preparation of brush-border membrane vesicles from the intestinal cells of the small intestine was carried out using the so-called Mg^2+ precipitation method. Male New Zealand rabbits (2-2.5 kg body weight) were sacrificed by intravenous injection of 0.5 ml of T-61^R. The small intestine was removed and rinsed with ice-cold physiological saline solution. The terminal 3/10 of the small intestine (measured in the oral-rectal direction, i.e. the terminal ileum, which contains the active Na^+ -dependent bile acid transport system) were used for preparation of the brush-border membrane vesicles. The intestines were frozen at -80° C. under nitrogen in plastic bags. The frozen intestines were thawed in a water bath at 30° C. in order to prepare the membrane vesicles. The mucosa was scraped off and suspended in 60 ml of ice-cold 12 mM trys/HCl buffer (pH 7.1)/300 mM mannitol, 5 mM EGTA/10 mg/l of phenylmethylsulfonyl fluoride/1 mg/l of soybean trypsin inhibitor (32 U/mg)/0.5 mg/l of bovine lung trypsin inhibitor (193 U/mg)/5 mg/l of bacitracin. After diluting to 300 ml with ice-cold distilled water, the suspension was homogenized with ice-cooling for 3 minutes at 75% of maximum power using an Ultraturrax (18 rod, IKA Werk Staufen, Federal Republic of Germany). After addition of 3 ml of 1M MgCl2 solution (final concentration 10 mM), the homogenate was allowed to stand at 0° C. for exactly 1 minute. As a result of addition of Mg^2+, the cell membranes aggregate and precipitate with the exception of the brush-border membranes. After centrifugation at 3,000×g (5,000 rpm, SS-34 rotor) for 15 minutes, the precipitate is discarded and the supernatant which contains the brush-border membranes is centrifuged at 26,700×g (15,000 rpm, SS-34 rotor) for 30 minutes. The supernatant was discarded, and the precipitate was rehomogenized in 60 ml of 12 mM tris/HCl buffer (pH 7.1)/60 mM mannitol, 5 mM EGTA using a Potter Elvejhem homogenizer (Braun Melsungen, 900 rpm, 10 strokes). After addition of 0.1 ml of 1M MgCl2 solution and an incubation time of 15 minutes at 0° C., the mixture was again centrifuged at 3,000×g for 15 minutes. The supernatant was then again centrifuged at […] (15,000 rpm, SS-34 rotor) for 30 minutes. The precipitate was taken up in 30 ml of 10 mM tris/hepes buffer (pH 7.4)/300 mM mannitol and homogeneously resuspended by 20 strokes in a Potter Elvejhem homogenizer at 1,000 rpm. After centrifugation at 48,000×g (20,000 rpm, SS-34 rotor) for 30 minutes, the precipitate was taken up in 0.5 to 2 ml of tris/hepes buffer (pH 7.4)/280 mM mannitol (final concentration 20 mg/ml) and resuspended with the aid of a tuberculin syringe using a 27 gauge needle. The vesicles were either used immediately after preparation for transport investigations or stored at -196° C. in liquid nitrogen in 4 mg portions.
The absorption of substrates into brush-border membrane vesicles was determined by means of the so-called membrane filtration technique. 10 μl of the vesicle suspension (100 μg of protein) were pipetted on the wall of a polystyrene incubation tube (11×70 mm) as a drop which contained the incubation medium together with the corresponding ligands (90 μl ). […] The incubation medium was filtered through a polyvinylidene fluoride membrane filter (SYHV LO 4NS, 0.45 μm, 4 mm .phi., Millipore, Eschborn, Federal Republic of Germany). The transport measurement was begun by mixing the vesicles with the incubation medium. […] After the desired incubation time (customarily 1 min), the transport was stopped by addition of 1 ml of ice-cold stop solution (10 mM tris/hepes, (pH 7.4)/150 mM KCl). The resulting mixture was immediately filtered off with suction in a vacuum of 25 to 35 mbar through a membrane filter made of cellulose nitrate (ME 25, 0.45 μm, 25 mm diameter, Schleicher & Schuell, Dassell, Federal Republic of Germany). The filter was subsequently washed with 5 ml of ice-cold Stop solution.

[1] = Na+-dependent transport component, 50 μM taurocholate

SMILES	IC50	IC25 [1]	IC75 [1]	IC25	IC75	IC50 (read-out: IC50)
C[C@H](CCC(=O)O)[C@H]1CC[C@H]2[C@@H]3[C@H](O)C[C@@H]4C[C@@H](OCCNC(=O)CCCc5ccc(N(CCCl)CCCl)cc5)CC[C@]4(C)[C@H]3C[C@H](O)[C@]12C [Example 66]	86.5 µM	60 µM	148 µM			
C[C@H](CCC(=O)NCC(=O)O)[C@H]1CC[C@H]2[C@@H]3[C@H](O)C[C@@H]4C[C@@H](OCCNC(=O)CCCc5ccc(N(CCCl)CCCl)cc5)CC[C@]4(C)[C@H]3C[C@H](O)[C@]12C [Example 68]	89 µM	60 µM	250 µM			
CC(C)c1cc(-c2ccc(F)cc2)c(OC[C@@H](O)C[C@@H](O)CC(=O)NCCO[C@H]2CC[C@@]3(C)[C@@H](C2)C[C@@H](O)[C@@H]2[C@@H]3C[C@H](O)[C@]3(C)[C@@H]([C@H](C)CCC(=O)O)CC[C@@H]23)c(C(C)C)c1 [Example 81]				15 µM	64 µM	38 µM
CC(C)c1cc(-c2ccc(F)cc2)c(OC[C@@H](O)C[C@@H](O)CC(=O)NCCCO[C@H]2CC[C@@]3(C)[C@@H](C2)C[C@@H](O)[C@@H]2[C@@H]3C[C@H](O)[C@]3(C)[C@@H]([C@H](C)CCC(=O)O)CC[C@@H]23)c(C(C)C)c1 [Example 82 (Na salt)]				17 µM	80 µM	48 µM
CC(C)c1nc(-c2ccccc2)cc(-c2ccc(F)cc2)c1/C=C/[C@@H](O)C[C@@H](O)CC(=O)NCCO[C@H]1CC[C@@]2(C)[C@@H](C1)C[C@@H](O)[C@@H]1[C@@H]2C[C@H](O)[C@]2(C)[C@@H]([C@H](C)CCC(=O)O)CC[C@@H]12 [Example 85]				18 µM	64 µM	43 µM
CC(C)c1nc(-c2ccccc2)cc(-c2ccc(F)cc2)c1/C=C/[C@@H](O)C[C@@H](O)CC(=O)NCCCO[C@H]1CC[C@@]2(C)[C@@H](C1)C[C@@H](O)[C@@H]1[C@@H]2C[C@H](O)[C@]2(C)[C@@H]([C@H](C)CCC(=O)O)CC[C@@H]12 [Example 86]				14 µM	87 µM	62 µM
CC(C)c1nc(-c2ccccc2)cc(-c2ccc(F)cc2)c1/C=C/[C@@H](O)C[C@@H](O)CC(=O)NCCCO[C@@H]1CC[C@@]2(C)[C@@H](C1)C[C@@H](O)[C@@H]1[C@@H]2C[C@H](O)[C@]2(C)[C@@H]([C@H](C)CCC(=O)O)CC[C@@H]12 [Example 87]				16 µM	70 µM	56 µM
Cc1cc(C(=C(/C=C/[C@@H](O)C[C@@H](O)CC(=O)NCCO[C@H]2CC[C@@]3(C)[C@@H](C2)C[C@@H](O)[C@@H]2[C@@H]3C[C@H](O)[C@]3(C)[C@@H]([C@H](C)CCC(=O)O)CC[C@@H]23)C(C)C)c2ccc(F)c(C)c2)ccc1F [Example 90]				3.8 µM	27 µM	12 µM
CC(C)c1cc(Sc2ccc(F)cc2)cc(-c2ccc(F)cc2)c1OC[C@@H](O)C[C@@H](O)CC(=O)NCCO[C@H]1CC[C@@]2(C)[C@@H](C1)C[C@@H](O)[C@@H]1[C@@H]2C[C@H](O)[C@]2(C)[C@@H]([C@H](C)CCC(=O)O)CC[C@@H]12 [Example 93]				3.2 µM	23 µM	8 µM
CC(C)c1cc(Sc2ccc(F)cc2)cc(-c2ccc(F)cc2)c1OC[C@@H](O)C[C@@H](O)CC(=O)NCCCO[C@H]1CC[C@@]2(C)[C@@H](C1)C[C@@H](O)[C@@H]1[C@@H]2C[C@H](O)[C@]2(C)[C@@H]([C@H](C)CCC(=O)O)CC[C@@H]12 [Example 94]				4.5 µM	24 µM	13 µM
CC(C)c1cc(-c2ccc(F)cc2)c(OC[C@@H](O)C[C@@H](O)CC(=O)NCCO[C@H]2CC[C@@]3(C)[C@@H](C2)C[C@@H](O)[C@@H]2[C@@H]3C[C@H](O)[C@]3(C)[C@@H]([C@H](C)CCC(=O)NCC(=O)O)CC[C@@H]23)c(C(C)C)c1 [Example 101]				19 µM	68 µM	40 µM
CC(C)c1nc(-c2ccccc2)cc(-c2ccc(F)cc2)c1/C=C/[C@@H](O)C[C@@H](O)CC(=O)NCCO[C@H]1CC[C@@]2(C)[C@@H](C1)C[C@@H](O)[C@@H]1[C@@H]2C[C@H](O)[C@]2(C)[C@@H]([C@H](C)CCC(=O)NCC(=O)O)CC[C@@H]12 [Example 105]				11 µM	45 µM	22.5 µM
CC(C)c1cc(-c2ccc(F)cc2)c(OC[C@@H](O)C[C@@H](O)CC(=O)NCCO[C@H]2CC[C@@]3(C)[C@@H](C2)C[C@@H](O)[C@@H]2[C@@H]3C[C@H](O)[C@]3(C)[C@@H]([C@H](C)CCC(=O)NCCS(=O)(=O)O)CC[C@@H]23)c(C(C)C)c1 [Example 111]				10 µM	39 µM	24 µM
CC(C)c1nc(-c2ccccc2)cc(-c2ccc(F)cc2)c1/C=C/[C@@H](O)C[C@@H](O)CC(=O)NCCO[C@H]1CC[C@@]2(C)[C@@H](C1)C[C@@H](O)[C@@H]1[C@@H]2C[C@H](O)[C@]2(C)[C@@H]([C@H](C)CCC(=O)NCCS(=O)(=O)O)CC[C@@H]12 [Example 115 (Na salt)]				12 µM	44 µM	28 µM
COC(=O)CC[C@@H](C)[C@H]1CC[C@H]2[C@@H]3[C@H](O)C[C@@H]4C[C@@H](OCCNC(=O)[C@@H](C)NC(=O)[C@@H](C)NC(=O)OCc5ccccc5)CC[C@]4(C)[C@H]3C[C@H](O)[C@]12C [Example 119, Z-D-Ala-D-Ala-NH--(CH2)2 --GS--OCH3]				48 µM		134 µM
COC(=O)CC[C@@H](C)[C@H]1CC[C@H]2[C@@H]3[C@H](O)C[C@@H]4C[C@@H](OCCNC(=O)[C@@H](C)NC(=O)[C@@H](C)N)CC[C@]4(C)[C@H]3C[C@H](O)[C@]12C [Example 120, H-D-Ala-D-Ala-NH--(CH2)2 --GS--OCH3]				38 µM	178 µM	87 µM
C[C@H](CCC(=O)O)[C@H]1CC[C@H]2[C@@H]3[C@H](O)C[C@@H]4C[C@@H](OCCNC(=O)[C@@H](C)NC(=O)[C@@H](C)N)CC[C@]4(C)[C@H]3C[C@H](O)[C@]12C [Example 121, H-D-Ala-D-Ala-NH--(CH2)2 --GS--OH]				30 µM	172 µM	84 µM
C[C@H](CCC(=O)O)[C@H]1CC[C@H]2[C@@H]3[C@H](O)C[C@@H]4C[C@@H](OCCNC(=O)[C@@H](C)NC(=O)[C@@H](C)NC(=O)OCc5ccccc5)CC[C@]4(C)[C@H]3C[C@H](O)[C@]12C [Example 122, Z-D-Ala-D-Ala-NH--(CH2)2 --GS--OH]				19 µM	237 µM	107 µM
CC(C)c1nc(-c2ccccc2)cc(-c2ccc(F)cc2)c1/C=C/[C@@H]1C[C@@H](O)CC(=O)O1 [Example 125, reference compound]				12 µM	104 µM	46 µM
C[C@H](CCC(=O)NCCS(=O)(=O)O)[C@H]1CC[C@H]2[C@@H]3[C@H](O)C[C@@H]4C[C@H](O)CC[C@]4(C)[C@H]3CC[C@]12C [Taurochenodeoxycholate, reference compound]						23 µM
